# Measurements reported in US10752609B2, “GSK-3 inhibitors” (priority 2016, dated 2020).
# Like-named read-outs stand apart in the source and are kept apart here.
# Columns and labels:
# GSK3β = GSK3β (Homo sapiens, UniProt P49841); experiment: GSK3β kinase assay (Caliper LabChip3000 mobility shift, fluoresceinated peptide substrate); format: biochemical
# Procedure: The kinase assay was performed in V-bottom 384-well plates. […] The reaction was incubated at room temperature for 20 hours and terminated by adding 45 μl of 35 mM EDTA to each sample. The reaction mixture was analyzed on the Caliper LabChip3000 (Caliper, Hopkinton, Mass.) by electrophoretic separation of the unphosphorylated substrate and phosphorylated product. […] Compounds were dissolved at 10 mM in dimethylsulfoxide (DMSO) and evaluated at eleven concentrations. IC50 values were derived by non-linear regression analysis.
# GSK3α = GSK3α (Homo sapiens, UniProt P49840); experiment: GSK3α kinase assay (Caliper LabChip3000 mobility shift, fluoresceinated peptide substrate)
# Chain of GSK3α (P49840 whole entry, species assumed): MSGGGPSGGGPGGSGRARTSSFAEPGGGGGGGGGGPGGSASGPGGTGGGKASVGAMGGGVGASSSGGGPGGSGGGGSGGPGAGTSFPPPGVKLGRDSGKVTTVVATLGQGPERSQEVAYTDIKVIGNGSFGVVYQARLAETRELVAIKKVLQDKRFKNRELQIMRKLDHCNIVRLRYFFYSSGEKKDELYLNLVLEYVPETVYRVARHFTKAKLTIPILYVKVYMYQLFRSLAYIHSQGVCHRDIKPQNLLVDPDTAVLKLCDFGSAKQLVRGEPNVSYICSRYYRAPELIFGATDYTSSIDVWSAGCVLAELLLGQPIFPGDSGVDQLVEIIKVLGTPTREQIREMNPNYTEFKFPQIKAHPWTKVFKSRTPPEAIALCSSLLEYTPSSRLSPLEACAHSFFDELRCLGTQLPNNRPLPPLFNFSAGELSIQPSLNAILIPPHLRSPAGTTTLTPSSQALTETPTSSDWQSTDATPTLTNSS
# pTau = pTau assay (no method described); format: cell-based
# [1] = 250 pM enzyme, 20 uM ATP, 1.5 uM peptide, 20 hours room temperature, first value of cell GSK3β/GSK3α, read-out: GSK3β (nM), IC50
# Chain of GSK3β (P49841 whole entry, species assumed): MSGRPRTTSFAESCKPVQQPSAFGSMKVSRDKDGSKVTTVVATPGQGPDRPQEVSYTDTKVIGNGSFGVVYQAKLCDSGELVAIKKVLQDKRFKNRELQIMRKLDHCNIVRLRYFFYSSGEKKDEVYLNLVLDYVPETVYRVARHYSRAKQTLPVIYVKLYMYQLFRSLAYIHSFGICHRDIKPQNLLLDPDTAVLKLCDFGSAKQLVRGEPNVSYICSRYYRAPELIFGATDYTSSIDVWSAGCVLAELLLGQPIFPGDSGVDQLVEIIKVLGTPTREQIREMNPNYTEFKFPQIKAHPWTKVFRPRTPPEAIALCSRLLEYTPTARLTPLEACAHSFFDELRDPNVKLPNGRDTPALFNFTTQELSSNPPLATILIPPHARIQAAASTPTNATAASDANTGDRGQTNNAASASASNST
Compound,IC50 (GSK3β; [1]) [nM],IC50 (GSK3α) [nM],IC50 (pTau) [nM],IC50 (GSK3β) [nM]
"O=C(Nc1cnccc1C1CCOCC1)c1ccnc(Nc2ccc(OC(F)F)nc2)n1 [Example 80, 2-((6-(Difluoromethoxy)pyridin-3-yl)amino)-N-(4-(tetrahydro-2H-pyran-4-yl)pyridin-3-yl)pyrimidine-4-carboxamide]",2.4,0.65,86,–
"O=C(Nc1cnccc1CN1CCCC1)c1ccnc(Nc2ccc(OC(F)F)nc2)n1 [Example 81, 2-((6-(Difluoromethoxy)pyridin-3-yl)amino)-N-(4-(pyrrolidin-1-ylmethyl)pyridin-3-yl)pyrimidine-4-carboxamide]",9.8,6.6,520,–
"N#Cc1ccc(Nc2nccc(C(=O)Nc3cnccc3OCC(F)(F)F)n2)cn1 [Example 82, 2-((6-Cyanopyridin-3-yl)amino)-N-(4-(2,2,2-trifluoroethoxy)pyridin-3-yl)pyrimidine-4-carboxamide]",0.18,0.09,2.8,–
"Cc1ccc(Nc2nccc(C(=O)Nc3cnccc3OCC(F)(F)F)n2)cn1 [Example 83, 2-((6-Methylpyridin-3-yl)amino)-N-(4-(2,2,2-trifluoroethoxy)pyridin-3-yl)pyrimidine-4-carboxamide]",0.22,0.16,5.1,–
"O=C(Nc1cnccc1OCC(F)(F)F)c1ccnc(Nc2ccc(F)nc2)n1 [Example 84, 2-((6-Fluoropyridin-3-yl)amino)-N-(4-(2,2,2-trifluoroethoxy)pyridin-3-yl)pyrimidine-4-carboxamide]",0.24,0.11,4.8,–
"O=C(Nc1cnccc1OCC(F)(F)F)c1ccnc(NC2CCCOC2)n1 (stereo not drawn) [Example 85, 2-((Tetrahydro-2H-pyran-3-yl)amino)-N-(4-(2,2,2-trifluoroethoxy)pyridin-3-yl)pyrimidine-4-carboxamide]",0.51,0.41,17,–
"O=C(Nc1cnccc1-c1ccccc1)c1ccnc(Nc2ccc(F)nc2)n1 [Example 86, 2-((6-Fluoropyridin-3-yl)amino)-N-(4-phenylpyridin-3-yl)pyrimidine-4-carboxamide]",0.8,0.4,68,–
"CC(=O)Nc1ccc(Nc2nccc(C(=O)Nc3cnccc3-c3ccccc3)n2)cn1 [Example 87, 2-((6-Acetamidopyridin-3-yl)amino)-N-(4-phenylpyridin-3-yl)pyrimidine-4-carboxamide]",1.4,0.92,150,–
"O=C(Nc1cnccc1-c1ccccc1)c1ccnc(NC2CCOCC2)n1 [Example 88, N-(4-Phenylpyridin-3-yl)-2-((tetrahydro-2H-pyran-4-yl)amino)pyrimidine-4-carboxamide]",2.6,1.4,150,–
"Cc1ccc(Nc2nccc(C(=O)Nc3cnccc3-c3ccccc3)n2)cn1 [Example 89, 2-((6-Methylpyridin-3-yl)amino)-N-(4-phenylpyridin-3-yl)pyrimidine-4-carboxamide]",3,1.5,73,–
"CCn1nccc1Nc1nccc(C(=O)Nc2cnccc2-c2ccccc2)n1 [Example 90, 2-((1-Ethyl-1H-pyrazol-5-yl)amino)-N-(4-phenylpyridin-3-yl)pyrimidine-4-carboxamide]",–,2.2,120,3
"O=C(Nc1cnccc1-c1ccccc1)c1ccnc(Nc2cncc3c2CCCC3)n1 [Example 91, N-(4-Phenylpyridin-3-yl)-2-((5,6,7,8-tetrahydroisoquinolin-4-yl)amino)pyrimidine-4-carboxamide]",3.5,2.3,270,–
"CCO[C@H]1COC[C@@H]1Nc1nccc(C(=O)Nc2cnccc2-c2ccccc2)n1 [Example 92, 2-(((3S,4R)-4-Ethoxytetrahydrofuran-3-yl)amino)-N-(4-phenylpyridin-3-yl)pyrimidine-4-carboxamide]",3.8,2.2,250,–
